# Assay results: patent US20180185476A1, “METHODS AND PHARMACEUTICAL COMPOSITIONS FOR INHIBITING LYMPHOCYTE PROLIFERATION IN A SUBJECT IN NEED THEREOF” (INSERM (Institut National de la Sante et de la Recherche …, priority 2013, published 2018)
# “Also recorded” adds a separate entry of the source.
# Columns and labels:
# control T-cells = test: T-cell proliferation in response to CD3 activation (CellTrace violet dye dilution); format: cell-based, human; settings: nucleotide added to deazauridine-treated control T cells
# Source text: Informed consent was obtained from donors, patients and families of patients. The study and protocols conform to the 1975 declaration of Helsinki as well as to local legislation and ethical guidelines. Genomic DNA extracted from peripheral blood cells was used for whole exome sequencing (Illumina) and sequencing of CTPS1. PBMCs were Ficoll-purified and activated with phytohemagglutinin (PHA) for 3 days, and then cultured in RPMI medium supplemented with 5% type AB human serum and IL-2 (100 UI/ml). T-cell blasts were restimulated with various mitogens and analyzed for memory and activation markers, calcium flux, cytokine secretions, apoptosis and TCR-CD3 signaling cascade molecules by immunoblotting. CTPS1 protein was detected by immunoblotting with an antibody raised against residues in the middle of the protein (341 to 355) (#SAB111071, Sigma). […] Proliferation was assessed after 96 hours by monitoring the dilution of CellTrace violet dye labelling. Cell cycle was determined by measuring the incorporation of EdU into newly synthesized DNA during 40 hours. The division indexes were calculated with the Flowjo software (BD Biosciences). […] In long-term expansions, cells were repeatedly stimulated with CD3/CD28-coated beads every 48 h and the transduced GFP^+ cells in the cultures were determined by every 24 h. […]
# CTPS1-deficient cells = test: Proliferation and CD25 expression of CTPS1-deficient T cells after addition of nucleotides or nucleosides; format: cell-based, human; settings: addition of nucleotides or nucleosides before stimulation
# Source text: Informed consent was obtained from donors, patients and families of patients. The study and protocols conform to the 1975 declaration of Helsinki as well as to local legislation and ethical guidelines. Genomic DNA extracted from peripheral blood cells was used for whole exome sequencing (Illumina) and sequencing of CTPS1. PBMCs were Ficoll-purified and activated with phytohemagglutinin (PHA) for 3 days, and then cultured in RPMI medium supplemented with 5% type AB human serum and IL-2 (100 UI/ml). T-cell blasts were restimulated with various mitogens and analyzed for memory and activation markers, calcium flux, cytokine secretions, apoptosis and TCR-CD3 signaling cascade molecules by immunoblotting. CTPS1 protein was detected by immunoblotting with an antibody raised against residues in the middle of the protein (341 to 355) (#SAB111071, Sigma). […] Proliferation was assessed after 96 hours by monitoring the dilution of CellTrace violet dye labelling. Cell cycle was determined by measuring the incorporation of EdU into newly synthesized DNA during 40 hours. The division indexes were calculated with the Flowjo software (BD Biosciences). For gene silencing of CTPS1 by shRNA expression (Openbiosystems), cells were transduced at day 3 of PHA stimulation. For rescue experiments, CTPS1-deficient cells were transduced with a lentiviral vector (Invitrogen) containing the CTPS1 gene and proliferation was performed 5 days after transduction. In long-term expansions, cells were repeatedly stimulated with CD3/CD28-coated beads every 48 h and the transduced GFP^+ cells in the cultures were determined by every 24 h. The intracellular content of nucleotides was measured by liquid chromatography-mass spectrometry (UPLC-xevoTQS, Waters). P values were calculated by two-tailed Student's t-test using PRISM software (GraphPad).
SMILES,reversion of the inhibition of T-cell proliferation by deazauridine (control T-cells),CD25 expression of CTPS1-deficient cells (CTPS1-deficient cells),proliferation of CTPS1-deficient cells (CTPS1-deficient cells)
"Nc1ccn([C@@H]2O[C@H](COP(=O)(O)OP(=O)(O)OP(=O)(O)O)[C@@H](O)[C@H]2O)c(=O)n1 [CTP, cytidine nucleotide triphosphate]",fully reverted,recovered to a normal level,recovered to a normal level; also recorded: restored to normal level
O=c1ccn([C@@H]2O[C@H](COP(=O)(O)OP(=O)(O)OP(=O)(O)O)[C@@H](O)[C@H]2O)c(=O)[nH]1 [UTP],partially,,
Nc1ccn([C@@H]2O[C@H](CO)[C@@H](O)[C@H]2O)c(=O)n1 [cytidine],,recovered to a normal level,recovered to a normal level; also recorded: restored
